Test results: patent US20250313548A1 (Actio Biosciences, Inc., priority 2023, published 2025)

Target: human, KCNT1 (Homo sapiens (Human), UniProt Q5JUK3)
Experiment: FLIPR Tl/K Flux Assay
Format: cell-based
Settings: HEK293 cells stably expressing human KCNT1; Tl+ flux stimulated with EC80 of agonist Loxapine
Procedure, shortened: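 Inhibition values come from a Hill-equation fit of % inhibition versus log concentration, using normalized fluorescence (Fmax/Fmin) over a 160 s read. The read followed stimulation with Tl+ plus EC80 agonist loxapine after 30 min compound pre-incubation at 25 °C. Cells were KCNT1-expressing HEK293, dye-loaded 1 h in pH 7.4 HEPES/HBSS with 5 mM probenecid.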

human, KCNT1, sequence (Q5JUK3 whole entry): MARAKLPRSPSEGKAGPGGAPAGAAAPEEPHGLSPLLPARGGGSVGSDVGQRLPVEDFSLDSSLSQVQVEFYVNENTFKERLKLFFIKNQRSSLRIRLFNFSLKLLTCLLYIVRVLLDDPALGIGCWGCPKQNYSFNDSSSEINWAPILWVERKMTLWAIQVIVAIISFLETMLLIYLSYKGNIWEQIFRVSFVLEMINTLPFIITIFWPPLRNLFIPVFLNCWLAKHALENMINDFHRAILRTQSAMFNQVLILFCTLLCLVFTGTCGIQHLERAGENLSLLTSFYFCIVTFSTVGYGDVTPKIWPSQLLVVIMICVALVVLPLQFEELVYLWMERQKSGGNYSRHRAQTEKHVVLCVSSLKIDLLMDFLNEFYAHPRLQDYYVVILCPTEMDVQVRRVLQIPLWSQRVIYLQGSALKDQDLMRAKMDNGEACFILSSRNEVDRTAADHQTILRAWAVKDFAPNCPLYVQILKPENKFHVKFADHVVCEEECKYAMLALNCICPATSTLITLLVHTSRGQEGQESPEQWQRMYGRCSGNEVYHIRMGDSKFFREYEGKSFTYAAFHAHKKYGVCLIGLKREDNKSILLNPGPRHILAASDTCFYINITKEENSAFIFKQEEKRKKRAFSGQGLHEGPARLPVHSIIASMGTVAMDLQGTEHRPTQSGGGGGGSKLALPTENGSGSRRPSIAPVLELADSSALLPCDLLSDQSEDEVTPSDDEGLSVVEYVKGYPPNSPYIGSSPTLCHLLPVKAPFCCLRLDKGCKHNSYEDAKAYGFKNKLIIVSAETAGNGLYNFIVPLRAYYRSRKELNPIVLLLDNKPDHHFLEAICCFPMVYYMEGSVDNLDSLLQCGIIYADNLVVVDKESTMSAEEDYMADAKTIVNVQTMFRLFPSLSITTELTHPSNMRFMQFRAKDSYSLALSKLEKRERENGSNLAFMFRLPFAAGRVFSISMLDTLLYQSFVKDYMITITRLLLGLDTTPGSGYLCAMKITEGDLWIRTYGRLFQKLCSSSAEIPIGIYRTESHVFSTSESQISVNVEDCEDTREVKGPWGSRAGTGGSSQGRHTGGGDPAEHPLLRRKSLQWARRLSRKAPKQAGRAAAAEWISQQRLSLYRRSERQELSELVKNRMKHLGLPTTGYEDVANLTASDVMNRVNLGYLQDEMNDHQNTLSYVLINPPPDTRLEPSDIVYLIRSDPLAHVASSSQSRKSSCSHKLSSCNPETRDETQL

Question: CN(C(=O)c1cc(C(F)(F)F)nn1C)[C@H]1CCCc2nn(-c3ccnc(C(F)(F)F)c3)cc21 [Compound I-37a, (S)—N,1-Dimethyl-3-(trifluoromethyl)-N-(2-(2-(trifluoromethyl)pyridin-4-yl)-4,5,6,7-tetrahydro-2H-indazol-4-yl)-1H-pyrazole-5-carboxamide] was tested. Which IC50 did it give?
Answer: Its IC50 is > 1000 nM.

Question: For Cn1nc(C(F)(F)F)cc1C(=O)N[C@@H]1CCCn2nc(-c3ccnc(C4CC4)c3)cc21 [Compound I-64b], which IC50 is on record?
Answer: The IC50 was 500 to 1000 nM.

Question: For O=C(N[C@@H]1CCCCc2nn(-c3ccnc(C(F)(F)F)c3)cc21)c1cc(Cl)cc(C(F)(F)F)c1 [Compound I-109b], which IC50 is on record?
Answer: The IC50 was > 1000 nM.

Question: CC(F)(F)c1cc(-n2cc3c(n2)CC[C@@H]3NC(=O)c2cccc(C#N)c2)ccn1 [Compound I-274a, (S)-3-Cyano-N-(2-(2-(1,1-difluoroethyl)pyridin-4-yl)-2,4,5,6-tetrahydrocyclopenta[c]pyrazol-4-yl)benzamide] was tested. Which IC50 did it give?
Answer: The IC50 was < 250 nM.

Question: How did the IC50 turn out when COc1cc(C(=O)N[C@H]2CCc3cnc(-c4ccnc(C(F)(F)F)c4)cc32)ccn1 [Compound I-196a, (S)-2-Methoxy-N-(3-(2-(trifluoromethyl)pyridin-4-yl)-6,7-dihydro-5H-cyclopenta[c]pyridin-5-yl)isonicotinamide] was run?
Answer: Its IC50 is 500 to 1000 nM.

Question: For CC(C)(C)OC(=O)N[C@H]1CCc2nn(-c3ccnc(C(F)(F)F)c3)cc21 [Compound I-105a], which IC50 is on record?
Answer: The IC50 was < 250 nM.

Question: Cn1nc(C(F)(F)F)cc1C(=O)N[C@@H]1CCCn2nc(-c3ccnc(C(F)(F)F)c3)cc21 [Compound I-42b, (R)-1-Methyl-3-(trifluoromethyl)-N-(2-(2-(trifluoromethyl)pyridin-4-yl)-4,5,6,7-tetrahydropyrazolo[1,5-a]pyridin-4-yl)-1H-pyrazole-5-carboxamide] was tested. Which IC50 did it give?
Answer: The IC50 was > 1000 nM.

Question: Cn1nc(C(C)(F)F)cc1C(=O)NC1CCCc2nn(-c3ccnc(C(F)(F)F)c3)cc21 (racemic) [Compound I-10, (rac)-3-(1,1-Difluoroethyl)-1-methyl-N-(2-(2-(trifluoromethyl)pyridin-4-yl)-4,5,6,7-tetrahydro-2H-indazol-4-yl)-1H-pyrazole-5-carboxamide] was tested. Which IC50 did it give?
Answer: The IC50 was < 250 nM.

Question: For COc1cc(-c2nc3c(o2)[C@@H](NC(=O)c2cc(Cl)cc(Cl)c2)CCC3)ccn1 [Compound I-150a, (S)-3,5-Dichloro-N-(2-(2-methoxypyridin-4-yl)-4,5,6,7-tetrahydrobenzo[d]oxazol-7-yl)benzamide], which IC50 is on record?
Answer: The IC50 was < 250 nM.

Question: For Cn1nc(C(F)(F)F)nc1C(=O)N[C@@H]1CCCc2oc(-c3ccnc(C4CC4)c3)nc21 [Compound I-504b], which IC50 is on record?
Answer: The IC50 was > 1000 nM.

Question: With COc1ccccc1C(=O)N[C@@H]1CCc2nn(-c3ccnc(C(F)(F)F)c3)cc21 [Compound I-94b] as the compound, how does the IC50 read?
Answer: The IC50 was > 1000 nM.

Question: CCOc1cc(-n2cc3c(n2)CCCCC3NC(=O)c2cccc(C(F)(F)F)c2)ccn1 (racemic) [Compound I-61, (rac)-N-(2-(2-Ethoxypyridin-4-yl)-2,4,5,6,7,8-hexahydrocyclohepta[c]pyrazol-4-yl)-3-(trifluoromethyl)benzamide] was tested. Which IC50 did it give?
Answer: The IC50 was < 250 nM.

Question: How did the IC50 turn out when O=C(N[C@H]1CCc2nn(-c3ccnc(C(F)(F)F)c3)cc21)c1cncc(C(F)(F)F)n1 [Compound I-565a, (S)-6-(Trifluoromethyl)-N-(2-(2-(trifluoromethyl)pyridin-4-yl)-2,4,5,6-tetrahydrocyclopenta[c]pyrazol-4-yl)pyrazine-2-carboxamide] was run?
Answer: The IC50 was < 250 nM.

Question: With CC(F)(F)c1cc(-c2nc3c(o2)CCC[C@H]3NC(=O)c2cccc(F)c2)ccn1 [Compound I-508b, (R)—N-(2-(2-(1,1-difluoroethyl)pyridin-4-yl)-4,5,6,7-tetrahydrobenzo[d]oxazol-4-yl)-3-fluorobenzamide] as the compound, how does the IC50 read?
Answer: Its IC50 is > 1000 nM.

Question: How did the IC50 turn out when O=C(N[C@H]1CCc2nn(-c3ccnc(C(F)(F)F)c3)cc21)c1cc(F)cc(Cl)c1 [Compound I-396a] was run?
Answer: Its IC50 is < 250 nM.

Question: For Cc1cnc(C(F)(F)F)cc1-c1cc2n(n1)CCC[C@@H]2NC(=O)c1nc(C(F)(F)F)nn1C [Compound I-303a, (S)-1-Methyl-N-(2-(5-methyl-2-(trifluoromethyl)pyridin-4-yl)-4,5,6,7-tetrahydropyrazolo[1,5-a]pyridin-4-yl)-3-(trifluoromethyl)-1H-1,2,4-triazole-5-carboxamide], which IC50 is on record?
Answer: The IC50 was < 250 nM.

Question: O=C(N[C@H]1CCn2nc(-c3cc(C(F)(F)F)ncc3F)cc21)C12CC(CC(F)F)(C1)C2 [Compound I-558a, (S)-3-(2,2-Difluoroethyl)-N-(2-(5-fluoro-2-(trifluoromethyl)pyridin-4-yl)-5,6-dihydro-4H-pyrrolo[1,2-b]pyrazol-4-yl)bicyclo[1.1.1]pentane-1-carboxamide] was tested. Which IC50 did it give?
Answer: Its IC50 is < 250 nM.

Question: Which IC50 does the source give for O=C(N[C@H]1CCCn2nc(-c3ccnc(C(F)(F)F)c3)cc21)c1cc2cccnn2c1 [Compound I-442a] here?
Answer: Its IC50 is < 250 nM.

Question: How did the IC50 turn out when O=C(N[C@H]1CCn2nc(-c3ccnc(C(F)(F)F)c3)cc21)[C@@H]1C[C@@H]1C(F)(F)F [I-487^, (1R,2S)-2-(trifluoromethyl)-N—((S)-2-(2-(trifluoromethyl)pyridin-4-yl)-5,6-dihydro-4H-pyrrolo[1,2-b]pyrazol-4-yl)cyclopropane-1-carboxamide] was run?
Answer: Its IC50 is < 250 nM.

Question: Which IC50 does the source give for Cn1nc(C(F)(F)F)cc1C(=O)NC1CCCCc2nn(-c3ccnc(C(F)(F)F)c3)cc21 (racemic) [Compound I-45, (rac)-1-Methyl-3-(trifluoromethyl)-N-(2-(2-(trifluoromethyl)pyridin-4-yl)-2,4,5,6,7,8-hexahydrocyclohepta[c]pyrazol-4-yl)-1H-pyrazole-5-carboxamide] here?
Answer: The IC50 was < 250 nM.

Question: For Cn1nc(C(F)(F)F)cc1C(=O)N[C@H]1CCCc2ncc(-c3ccnc(C(F)(F)F)c3)cc21 [Compound I-383a], which IC50 is on record?
Answer: The IC50 was > 1000 nM.

Question: CCOc1cc(-n2cc3c(n2)CCCC3NC(=O)c2cc(Cl)cc(C(F)(F)F)c2)ccn1 (racemic) [Compound I-14, (rac)-3-Chloro-N-(2-(2-ethoxypyridin-4-yl)-4,5,6,7-tetrahydro-2H-indazol-4-yl)-5-(trifluoromethyl)benzamide] was tested. Which IC50 did it give?
Answer: Its IC50 is < 250 nM.

Question: Cc1cc(Cl)cc(C(=O)N[C@H]2CCc3nn(-c4ccnc(C(F)(F)F)c4)cc32)c1 [Compound I-98a] was tested. Which IC50 did it give?
Answer: The IC50 was < 250 nM.

Question: For COc1cc(-c2cc3n(n2)CCCC[C@@H]3NC(=O)c2cc(C(F)(F)F)nn2C)ccn1 [Compound I-126a, (S)—N-(2-(2-Methoxypyridin-4-yl)-5,6,7,8-tetrahydro-4H-pyrazolo[1,5-a]azepin-4-yl)-1-methyl-3-(trifluoromethyl)-1H-pyrazole-5-carboxamide], which IC50 is on record?
Answer: Its IC50 is < 250 nM.

Question: For Cn1nc(C(F)(F)F)cc1C(=O)NC1CCCc2nn(-c3ccc(=O)n(C)c3)cc21 (racemic) [Compound I-39, (rac)-1-Methyl-N-(2-(1-methyl-6-oxo-1,6-dihydropyridin-3-yl)-4,5,6,7-tetrahydro-2H-indazol-4-yl)-3-(trifluoromethyl)-1H-pyrazole-5-carboxamide], which IC50 is on record?
Answer: Its IC50 is > 1000 nM.

Question: With O=C(N[C@H]1CCn2nc(-c3cc(C(F)(F)F)ncc3F)cc21)C12CC(CF)(C1)C2 [Compound I-540a, (S)-N-(2-(5-Fluoro-2-(trifluoromethyl)pyridin-4-yl)-5,6-dihydro-4H-pyrrolo[1,2-b]pyrazol-4-yl)-3-(fluoromethyl)bicyclo[1.1.1]pentane-1-carboxamide] as the compound, how does the IC50 read?
Answer: The IC50 was < 250 nM.

Question: With N#Cc1cccc(C(=O)NC2CCCn3cc(-c4ccnc(C(F)(F)F)c4)cc32)c1 (single isomer, unassigned) [I-309*] as the compound, how does the IC50 read?
Answer: Its IC50 is < 250 nM.

Question: CCOc1cc(-c2cc3n(n2)CC[C@@H]3NC(=O)c2cc(C(F)(F)F)nn2C)ccn1 [Compound I-254a, (S)-N-(2-(2-Ethoxypyridin-4-yl)-5,6-dihydro-4H-pyrrolo[1,2-b]pyrazol-4-yl)-1-methyl-3-(trifluoromethyl)-1H-pyrazole-5-carboxamide] was tested. Which IC50 did it give?
Answer: Its IC50 is < 250 nM.

Question: Which IC50 does the source give for COc1cc(-c2nc3c(o2)[C@H](NC(=O)c2cncc(C(F)(F)F)n2)CCC3)c(Cl)cn1 [Compound I-513b] here?
Answer: The IC50 was > 1000 nM.

Question: COc1cc(-c2nc3c(o2)[C@@H](NC(=O)c2cncc(C(F)(F)F)n2)CCC3)ccn1 [Compound I-143a, (S)-N-(2-(2-Methoxypyridin-4-yl)-4,5,6,7-tetrahydrobenzo[d]oxazol-7-yl)-6-(trifluoromethyl)pyrazine-2-carboxamide] was tested. Which IC50 did it give?
Answer: The IC50 was > 1000 nM.

Question: For COc1cc(-c2cc3n(n2)CC[C@@H]3NC(=O)c2cc(F)cc(C#N)c2)ccn1 [Compound I-301a, (S)-3-Cyano-5-fluoro-N-(2-(2-methoxypyridin-4-yl)-5,6-dihydro-4H-pyrrolo[1,2-b]pyrazol-4-yl)benzamide], which IC50 is on record?
Answer: The IC50 was < 250 nM.

Question: With CC(C)n1nc(C(F)(F)F)cc1C(=O)NC1CCCc2nn(-c3ccnc(C(F)(F)F)c3)cc21 (racemic) [Compound I-8, (rac)-1-Isopropyl-3-(trifluoromethyl)-N-(2-(2-(trifluoromethyl)pyridin-4-yl)-4,5,6,7-tetrahydro-2H-indazol-4-yl)-1H-pyrazole-5-carboxamide] as the compound, how does the IC50 read?
Answer: The IC50 was < 250 nM.

Question: With Cn1nc(C(F)(F)F)cc1C(=O)N[C@@H]1CCc2nn(-c3ccnc(C(C)(F)F)c3)cc21 [Compound I-77b] as the compound, how does the IC50 read?
Answer: Its IC50 is 500 to 1000 nM.

Question: How did the IC50 turn out when O=C(N[C@H]1CCCn2nc(-c3ccnc(C(F)(F)F)c3)cc21)c1cn(C2CC2)nc1C(F)(F)F [Compound I-398a] was run?
Answer: Its IC50 is < 250 nM.

Question: Which IC50 does the source give for N#Cc1cc(F)cc(C(=O)N[C@H]2CCCCn3nc(-c4ccnc(C5CC5)c4)cc32)c1 [Compound I-265a, (S)-3-Cyano-N-(2-(2-cyclopropylpyridin-4-yl)-5,6,7,8-tetrahydro-4H-pyrazolo[1,5-a]azepin-4-yl)-5-fluorobenzamide] here?
Answer: The IC50 was < 250 nM.

Question: For O=C(N[C@H]1CCCc2oc(-c3ccnc(C4CC4)c3)nc21)c1cn(C(F)(F)F)nc1C(F)(F)F [Compound I-519a, (S)—N-(2-(2-cyclopropylpyridin-4-yl)-4,5,6,7-tetrahydrobenzo[d]oxazol-4-yl)-1,3-bis(trifluoromethyl)-1H-pyrazole-4-carboxamide], which IC50 is on record?
Answer: The IC50 was < 250 nM.

Question: With Cn1nc(C(F)(F)F)cc1C(=O)N[C@H]1CCCc2nn(-c3ccnc(C(=O)O)c3)cc21 [Compound I-88a] as the compound, how does the IC50 read?
Answer: Its IC50 is > 1000 nM.

Question: How did the IC50 turn out when CC(C)n1nc(C(F)(F)F)cc1C(=O)N[C@H]1CCCn2nc(-c3ccnc(C(F)(F)F)c3)cc21 [Compound I-381a] was run?
Answer: The IC50 was < 250 nM.
